{
  "source": "patent US7153930B1",
  "about": "“Peptide transport” (priority 1999, dated 2006)",
  "key": {"gastric acid secretion [1]": {"tested_on": "gastric acid secretion", "settings": "rat, in vivo", "protocol": "(§1) Experiments were carried out on male Wistar rats of 250–350 g, which had been starved overnight, and which were anaesthetized with an I.P. injection of Sagatal (pentobarbitone sodium, obtainable from Rhône Mérieux, Harlow Essex, UK) of dosage appropriate to the body weight. The criterion for anaesthesia was abolition of the hind limb flexor withdrawal reflex. The following surgical procedures were then carried out: tracheostomy to allow artificial ventilation if required, cannulation of the carotid artery to monitor blood pressure, cannulation of the external jugular vein to allow for the slow bolus infusion of drugs, intubation of the stomach at the pyloro-duodenal junction after ligation of the oesophagus to measure gastric acid secretion, cannulation of the terminal ileum and/or of the proximal jejunum distal to the ligament of Treitz for infusion of peptide hormones.\n(§2) Gastric acid secretion was measured by the following method. 1.0 ml of glycine/mannitol buffer (1 part glycine (0.3M) and 4 parts D-mannitol (0.3M) adjusted to pH 6.5) was instilled into the stomach and left for 15 min when withdrawal was made. The HCl secreted was determined by back titration with 10 mM NaOH to pH 6.5.\n(§3) The data are expressed as the mean±S.D. μmol HCl secreted by the stomach over the stated time period in response to the experimental procedure."}, "gastric acid secretion [2]": {"tested_on": "gastric acid secretion", "assay": "Gastric acid secretion in anaesthetized rats after I.V., intra-ileal or jejunal administration of gastrin peptides (back titration of HCl)", "settings": "for increase in gastric acid secretion with respect to baseline: P=0.001; for effect on gastric acid secretion: unconjugated gastrin without prior injection of the respective conjugate; for absorption across the ileal wall into the circulation: cholate conjugated form introduced into the ileum; for stimulation of the peak gastric acid secretion: 5 rats", "protocol": "as §1, §2, §3"}},
  "note": "Non-standard residues stand in square brackets, D forms with d. Residues, ends and D or L forms follow the SMILES beside them. *: point of attachment. Cholyl = C[C@H](CCC(=O)*)[C@H]1CC[C@H]2[C@@H]3[C@H](O)C[C@@H]4C[C@H](O)CC[C@]4(C)[C@H]3C[C@H](O)[C@]12C; pGlu = O=C1CC[C@@H](C(=O)O)N1",
  "data": [
    {"molecule": "CSCC[C@H](NC(=O)[C@@H](N)Cc1c[nH]c2ccccc12)C(=O)N[C@@H](CC(=O)O)C(=O)N[C@@H](Cc1ccccc1)C(N)=O", "note": "[G4, Trp-Met-Asp-Phe amide]", "values": [
      {"measurement": "absorption from the upper jejunum", "setting": "gastric acid secretion [1]", "value": "lack of absorption"},
      {"measurement": "absorption of unconjugated gastrin", "setting": "gastric acid secretion [1]", "value": "absorption of the unconjugated gastrin occurred"},
      {"measurement": "increase in gastric acid secretion with respect to baseline", "setting": "gastric acid secretion [2]; first intravenous injection (start of experiment)", "value": "0.42±0.10", "unit": "μmol 15 min^1"},
      {"measurement": "fall in the mean gastric acid level", "setting": "gastric acid secretion [2]; ileal infusion, 2500 μg kg^−1 in 1.0 ml isotonic saline, 6 experiments, P=0.043", "value": "0.23 ± 0.21", "unit": "µmol/h"},
      {"measurement": "increase in gastric acid secretion with respect to baseline", "setting": "gastric acid secretion [2]; second intravenous injection (end of experiment)", "value": "0.50±0.14", "unit": "μmol 15 min^1"},
      {"measurement": "effect on gastric acid secretion", "setting": "gastric acid secretion [2]", "value": "without effect on gastric acid secretion"}
    ]},
    {"molecule": "CSCC[C@H](NC(=O)[C@H](Cc1c[nH]c2ccccc12)NC(=O)CC[C@@H](C)[C@H]1CC[C@H]2[C@@H]3[C@H](O)C[C@@H]4C[C@H](O)CC[C@]4(C)[C@H]3C[C@H](O)[C@]12C)C(=O)N[C@@H](CC(=O)O)C(=O)N[C@@H](Cc1ccccc1)C(N)=O", "note": "[G4-CA, cholate-Trp-Met-Asp-Phe amide]", "values": [
      {"measurement": "absorption across the ileal wall into the circulation", "setting": "gastric acid secretion [2]", "value": "absorption of the conjugated gastrin across the ileal wall into the circulation occurred"}
    ]},
    {"molecule": "CSCC[C@H](NC(=O)[C@H](Cc1c[nH]c2ccccc12)NC(=O)CNC(=O)[C@H](Cc1ccc(O)cc1)NC(=O)[C@H](C)NC(=O)[C@H](CCC(=O)O)NC(=O)[C@H](CCC(=O)O)NC(=O)[C@H](CCC(=O)O)NC(=O)CC[C@@H](C)[C@H]1CC[C@H]2[C@@H]3[C@H](O)C[C@@H]4C[C@H](O)CC[C@]4(C)[C@H]3C[C@H](O)[C@]12C)C(=O)N[C@@H](CC(=O)O)C(=O)N[C@@H](Cc1ccccc1)C(N)=O", "note": "[G10-CA, cholate-Glu-Glu-Glu-Ala-Tyr-Gly-Trp-Met-Asp-Phe-amide] (Cholyl-EEEAYGWMDF-NH2)", "values": [
      {"measurement": "absorption across the ileal wall into the circulation", "setting": "gastric acid secretion [2]", "value": "absorption of the conjugated gastrin across the ileal wall into the circulation occurred"}
    ]},
    {"molecule": "CC[C@H](C)[C@H](NC(=O)[C@H](Cc1ccccc1)NC(=O)[C@H](Cc1c[nH]cn1)NC(=O)[C@H](CCC(N)=O)NC(=O)[C@@H]1CCCN1C(=O)CNC(=O)[C@H](CCC(N)=O)NC(=O)[C@@H]1CCCN1C(=O)CNC(=O)[C@H](CC(C)C)NC(=O)[C@H](CCC(=O)O)NC(=O)CC[C@@H](C)[C@H]1CC[C@H]2[C@@H]3[C@H](O)C[C@@H]4C[C@H](O)CC[C@]4(C)[C@H]3C[C@H](O)[C@]12C)C(=O)N[C@@H](C)C(=O)N[C@@H](CC(=O)O)C(=O)N[C@@H](CC(C)C)C(=O)N[C@@H](CO)C(=O)N[C@@H](CCCCN)C(=O)N[C@@H](CCCCN)C(=O)N[C@@H](CCC(N)=O)C(=O)N[C@@H](CCCNC(=N)N)C(=O)N1CCC[C@H]1C(=O)N1CCC[C@H]1C(=O)N[C@@H](CCSC)C(=O)N[C@@H](CCC(=O)O)C(=O)N[C@@H](CCC(=O)O)C(=O)N[C@@H](CCC(=O)O)C(=O)N[C@@H](CCC(=O)O)C(=O)N[C@@H](CCC(=O)O)C(=O)N[C@@H](C)C(=O)N[C@@H](Cc1ccc(O)cc1)C(=O)NCC(=O)N[C@@H](Cc1c[nH]c2ccccc12)C(=O)N[C@@H](CCSC)C(=O)N[C@@H](CC(=O)O)C(=O)N[C@@H](Cc1ccccc1)C(N)=O", "note": "[G34-CA] (Cholyl-ELGPQGPQHFIADLSKKQRPPMEEEEEAYGWMDF-NH2)", "values": [
      {"measurement": "absorption across the ileal wall into the circulation", "setting": "gastric acid secretion [2]", "value": "absorption of the conjugated gastrin across the ileal wall into the circulation occurred"}
    ]},
    {"molecule": "H-EEEAYGWMDF-NH2 [G10, H-Glu-Glu-Glu-Ala-Tyr-GlyTrp-Met-Asp-Phe-amide]", "values": [
      {"measurement": "absorption of unconjugated gastrin", "setting": "gastric acid secretion [1]", "value": "absorption of the unconjugated gastrin occurred"},
      {"measurement": "stimulation of the peak gastric acid secretion", "setting": "gastric acid secretion [2]; I.V. 36 μg kg^−1, initial injection, P=0.036", "value": "1.28 ± 0.93", "unit": "µmol"},
      {"measurement": "stimulation of the peak gastric acid secretion", "setting": "gastric acid secretion [2]; I.V. 36 μg kg^−1, second injection at the end of the experiment, P=0.048", "value": "1.45 ± 1.15", "unit": "µmol"},
      {"measurement": "change in gastric acid secretion", "setting": "gastric acid secretion [2]; infusion into the ileum, 6600 μg kg^−1 in 1.0 ml, not significant (P=0.23)", "value": "−1.22±1.93", "unit": "μmol 180 min^−1"},
      {"measurement": "effect on gastric acid secretion", "setting": "gastric acid secretion [2]", "value": "without effect on gastric acid secretion"}
    ]},
    {"molecule": "pGlu-Leu-Gly-Pro-Gln-Gly-Pro-Gln-His-Phe-Ile-Ala-Asp-Leu-Ser-Lys-Lys-Gln-Arg-Pro-Pro-Met-Glu-Glu-Glu-Glu-Glu-Ala-Tyr-GlyTrp-Met-Asp-Phe-NH2 ([pGlu]LGPQGPQHFIADLSKKQRPPMEEEEEAYGWMDF-NH2; ends and bridges not checked) [G34]", "values": [
      {"measurement": "absorption of unconjugated gastrin", "setting": "gastric acid secretion [1]", "value": "absorption of the unconjugated gastrin occurred"},
      {"measurement": "stimulation of the peak gastric acid secretion", "setting": "gastric acid secretion [2]; I.V. 10 ng kg^−1, second injection at the end of the experiment, P=0.0005", "value": "0.23 ± 0.051", "unit": "µmol"},
      {"measurement": "stimulation of the peak gastric acid secretion", "setting": "gastric acid secretion [2]; I.V. near threshold dose 10 ng kg^−1, initial injection, P=0.0008", "value": "0.14 ± 0.034", "unit": "µmol"},
      {"measurement": "change in mean gastric acid secretion", "setting": "gastric acid secretion [2]; infusion into the ileum, 10.5 mg kg^−1 in 1.0 ml, not significant (P=0.16)", "value": "0.202±0.262", "unit": "μmol 180 min^−1"},
      {"measurement": "mean increase in gastric acid secretion", "setting": "gastric acid secretion [2]; intraileal infusion of G34 subsequent to intraileal infusion of G34-CA, 4 rats, P=0.004", "value": "5.68±1.38", "unit": "μmol 180 min^−1"},
      {"measurement": "effect on gastric acid secretion", "setting": "gastric acid secretion [2]", "value": "without effect on gastric acid secretion"}
    ]}
  ]
}
